“Also recorded” adds a separate entry of the source.
Columns and labels:
[1] = biological target: T1, soluble epoxide hydrolase (sEH) (Homo sapiens, UniProt P34913); assay: sEH kinetic study (Lineweaver–Burk plots, varying inhibitor and PHOME concentrations); assay type: biochemical; conditions: compound 1 to 5 μM, PHOME 1 to 20 μM
T1 construct: purchased Cayman Chemical Company 100116
T1 sequence (P34913 1-555): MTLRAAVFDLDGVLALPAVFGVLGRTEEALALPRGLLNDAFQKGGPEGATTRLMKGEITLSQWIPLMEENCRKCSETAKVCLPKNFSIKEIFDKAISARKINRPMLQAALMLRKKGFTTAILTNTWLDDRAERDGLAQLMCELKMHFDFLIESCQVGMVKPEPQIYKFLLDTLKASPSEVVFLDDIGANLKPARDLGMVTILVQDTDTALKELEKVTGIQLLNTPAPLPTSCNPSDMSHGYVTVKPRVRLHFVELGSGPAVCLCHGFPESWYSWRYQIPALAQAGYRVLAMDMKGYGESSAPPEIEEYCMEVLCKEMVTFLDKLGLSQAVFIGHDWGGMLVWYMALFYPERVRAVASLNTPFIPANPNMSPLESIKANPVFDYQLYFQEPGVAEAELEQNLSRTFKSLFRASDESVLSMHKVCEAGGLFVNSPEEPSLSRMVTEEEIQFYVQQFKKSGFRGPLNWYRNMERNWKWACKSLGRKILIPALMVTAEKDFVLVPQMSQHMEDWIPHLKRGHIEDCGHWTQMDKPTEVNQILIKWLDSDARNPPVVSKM
Procedure: Furthermore, the inhibition mechanisms of phenolic amides 6–8 and 10 were elucidated by kinetic analysis using various concentrations of compounds and the substrate, PHOME.
The inhibitory behaviour of compounds 6–8 and 10 against sEH was examined by analyzing kinetic changes at varying inhibitor concentrations. Each compound was tested at concentrations ranging from 1 to 5 μM, whereas the substrate PHOME was applied at concentrations ranging from 1 to 20 μM. The experimental data were fitted to the Michaelis–Menten equation to evaluate the kinetic parameters. The mode of inhibition was further determined using Lineweaver–Burk plots. Data were analyzed and plotted using GraphPad Prism 7 (GraphPad Software Inc., San Diego, CA, USA).

[2] = biological target: T1, soluble epoxide hydrolase (sEH); assay: sEH inhibitory activity, fluorescence-based assay with PHOME as substrate; assay type: biochemical; conditions: recombinant sEH; for IC50: 37 °C, mean ± SD (n = 3); for sEH inhibitory activity (in words): compounds tested 0.1–100.0 μM
Procedure: The sEH inhibitory activities of compounds 1−10 were evaluated using a fluorescence-based assay with 3-phenyl-cyano(6-methoxy-2-naphthalenyl)methyl ester-2-oxiraneacetic acid (PHOME) as the substrate.
The epoxide hydrolase (sEH) enzyme is a recombinant enzyme with a concentration of 0.8 mg/mL, purchased from the Cayman Chemical Company in the United States (catalogue number: 100116, batch number: 069065) and stored at −80 °C to ensure its activity.
The enzymatic reactions were performed in a 96-well plate at 37 °C, where sEH hydrolyzed the fluorogenic substrate PHOME (MedChemExpress LLC., Princeton, NJ, USA) in the presence of each compound. The fluorescence signals were measured at an excitation wavelength of 330 nm and an emission wavelength of 465 nm. Wells containing the substrate alone (without the test compounds) served as negative controls. […] The inhibitory activity of each compound was evaluated based on the reduction in the formation of 6-methoxy-2-naphthaldehyde, a fluorescent product generated by PHOME hydrolysis.

mechanism (mode) of sEH inhibition [1] | IC50 [2] [µM] | sEH inhibitory activity (in words) [2] | SMILES
non-competitive | 8.74 ± 0.42 | most potent sEH inhibitory activity | COc1cc(/C=C/C(=O)NCCc2ccc(O)c(O)c2)ccc1O[C@@H]1O[C@H](CO)[C@H](O)[C@H](O)[C@H]1O [Compound 6, cimicifugamide A]
mixed-type competitive | 15.63 ± 0.1 | moderate inhibitory activity | COc1cc(CCNC(=O)/C=C/c2ccc(O[C@@H]3O[C@H](CO)[C@H](O)[C@H](O)[C@H]3O)c(OC)c2)ccc1O [Compound 7, cimicifugamide]
 | > 100 |  | CC(C)CC[C@]1(O)C(=O)N([C@@H]2O[C@H](CO)[C@@H](O)[C@H](O)[C@H]2O)c2ccccc21 [Compound 3, (3R)-1-(β-D-glucopyranosyl)-3-hydroxy-3-(3-methylbutyl)-2-oxindole]
 | > 100 | lack of inhibitory activity | CC(C)=CC(=O)c1c[nH]c2ccccc12 [Compound 2, 3-(3-methyl-1-oxo-2-butenyl) 1H indole]
uncompetitive | 17.2 ± 0.31 | moderate inhibitory activity | COc1cc(/C=C/C(=O)NCCc2ccc(O)cc2)ccc1O [Compound 10, N-trans-feruloyl tyramine]
 | > 100 | lack of inhibitory activity | COc1ccc2c(C(=O)C=C(C)C)c[nH]c2c1 [Compound 1, 6-methoxy-3-(3-methyl-1-oxo-2-butenyl) 1H indole]
mixed-type competitive | 20.6 ± 0.89 | moderate inhibitory activity | COc1cc(/C=C/C(=O)NCCc2ccc(O)cc2)ccc1O[C@@H]1O[C@H](CO)[C@H](O)[C@H](O)[C@H]1O [Compound 8, demethoxycimicifugamide]

SMILES | mechanism (mode) of sEH inhibition [1] | IC50 [2] [µM] | sEH inhibitory activity (in words) [2]
CC(=O)NCCc1ccc(O)c(OC2OC(CO)C(O)C(O)C2O)c1 [Compound 4, N-acetyldopamine-3-O-β-D-allopyranoside] |  | > 100 | did not show significant inhibitory activity
CC(=O)NCCc1ccc(O)c(O[C@@H]2O[C@H](CO)[C@@H](O)[C@H](O)[C@H]2O)c1 [Compound 5, N-acetyldopamine-3-O-β-D-glucopyranoside] |  | > 100 | did not show significant inhibitory activity
COc1cc(C=CC(=O)NCCc2ccc(OC3OC(CO)C(O)C(O)C3O)c(OC)c2)ccc1O (centres unmarked) [Compound 9, cimicifugamide C] |  | > 100 | did not show significant inhibitory activity; also recorded: no sEH inhibitory activity

Reference: publication PMC12196358, “Indole Alkaloids and Phenolic Amides from the Rhizomes of Cimicifuga heracleifolia and Their In Vitro Soluble Epoxide Hydrolase (sEH) Inhibitory Activity” (Plants, 2025)
